Experimental data: patent US20140162876A1, “Fungicidal substituted 1--1H-[1,2,4]triazole compounds” (BASF SE, priority 2011, published 2014)

Tests used:
Phakopsora pachyrhizi = assay: G4 Protective control of soy bean rust on soy beans caused by Phakopsora pachyrhizi (Phakpa P2), green house; format: in vivo; details: soy bean sprayed 2 days before inoculation, % diseased leaf area, untreated control 90
Septoria tritici [1] = assay: G1 Preventative control of leaf blotch on wheat caused by Septoria tritici (Septtr P7), green house; format: in vivo; details: wheat sprayed 7 days before inoculation, % diseased leaf area, untreated control 80
Protocol: The spray solutions were prepared in several steps: The stock solution were prepared: a mixture of acetone and/or dimethylsulfoxide and the wetting agent/emulsifier Wettol, which is based on ethoxylated alkylphenoles, in a relation (volume) solvent-emulsifier of 99 to 1 was added to 25 mg of the compound to give a total of 5 ml. Water was then added to total volume of 100 ml. This stock solution was diluted with the described solvent-emulsifier-water mixture to the given concentration. G1 Preventative Control of Leaf Blotch on Wheat Caused by Septoria tritici (Septtr P7) Leaves of pot-grown wheat seedling were sprayed to run-off with an aqueous suspension of the active compound or their mixture, prepared as described. The plants were allowed to air-dry. Seven days later the plants were inoculated with an aqueous spore suspension of Septoria tritici. Then the trial plants were immediately transferred to a humid chamber at 18-22° C. and a relative humidity close to 100%. […] After 4 weeks the extent of fungal attack on the leaves was visually assessed as % diseased leaf area.

Septoria tritici [2] = assay: G2 Curative control of leaf blotch on wheat caused by Septoria tritici (Septtr K7), green house; format: in vivo; details: wheat sprayed 7 days after inoculation (curative), % diseased leaf area, untreated control 80
Protocol: The spray solutions were prepared in several steps: The stock solution were prepared: a mixture of acetone and/or dimethylsulfoxide and the wetting agent/emulsifier Wettol, which is based on ethoxylated alkylphenoles, in a relation (volume) solvent-emulsifier of 99 to 1 was added to 25 mg of the compound to give a total of 5 ml. Water was then added to total volume of 100 ml. This stock solution was diluted with the described solvent-emulsifier-water mixture to the given concentration. G2 Curative Control of Leaf Blotch on Wheat Caused by Septoria tritici (Septtr K7) Leaves of pot-grown wheat seedling were inoculated with an aqueous spore suspension of Septoria tritici. Then the trial plants were immediately transferred to a humid chamber at 18-22° C. and a relative humidity close to 100%. […] Seven days after inoculation the plants were sprayed to run-off with an aqueous suspension of the active compound or their mixture, prepared as described. […] After 4 weeks the extent of fungal attack on the leaves was visually assessed as % diseased leaf area.

Pyricularia oryzae = format: cell-based; details: microtiter plate, 7 days after inoculation
Botrytis cinerea = assay: M2 Activity against the grey mold Botrytis cinerea in the microtiterplate test (Botrci); format: cell-based; details: microtiter plate, 7 days after inoculation
Alternaria solani = assay: M3 Activity against early blight caused by Alternaria solani (Alteso), microtest; format: cell-based; details: microtiter plate, 7 days after inoculation
Septoria tritici [3] = assay: M4 Activity against leaf blotch on wheat caused by Septoria tritici (Septtr), microtest; format: cell-based; details: microtiter plate, 7 days after inoculation

CCOC(CC)(Cn1cncn1)c1ccc(Oc2ccc(Cl)cc2)cc1Cl (stereo not shown) [Compound I-2, 1-[2-[2-chloro-4-(4-chlorophenoxy)phenyl]-2-ethoxy-butyl]-1,2,4-triazole]
Disease (%) at 16 ppm Phakpa P2 (Phakopsora pachyrhizi): 40%

COC(C)(Cn1cncn1)c1ccc(Oc2ccc(Cl)cc2)cc1Cl (stereo not shown)
Disease (%) at 16 ppm Septtr P7 (Septoria tritici [1]): 80%

CCOC(Cn1cncn1)c1ccc(Oc2ccc(Cl)cc2)cc1Cl (stereo not shown) [drawing 21]
Disease (%) at 250 ppm Septtr K7 (Septoria tritici [2]): 40%
Disease (%) at 250 ppm Phakpa P2 (Phakopsora pachyrhizi): 30%

CCC(Cn1cncn1)(OC)c1ccc(Oc2ccc(Cl)cc2)cc1Cl (stereo not shown)
Disease (%) at 16 ppm Phakpa P2 (Phakopsora pachyrhizi): 80%

CCOC(Cn1cncn1)c1ccc(Oc2ccc(Cl)cc2)cc1Cl (stereo not shown) [drawing 24]
Disease (%) at 0.125 ppm Pyrior (Pyricularia oryzae): 84%
Disease (%) at 2 ppm Botrci (Botrytis cinerea): 24%
Disease (%) at 0.125 ppm Alteso (Alternaria solani): 44%
Disease (%) at 0.032 ppm Septtr (Septoria tritici [3]): 31%

CCOC(C)(Cn1cncn1)c1ccc(Oc2ccc(Cl)cc2)cc1Cl (stereo not shown) [Compound I-1]
Disease (%) at 16 ppm Septtr P7 (Septoria tritici [1]): 40%
Disease (%) at 250 ppm Septtr K7 (Septoria tritici [2]): 10%
Disease (%) at 250 ppm Phakpa P2 (Phakopsora pachyrhizi): 5%
Disease (%) at 0.125 ppm Pyrior (Pyricularia oryzae): 50%
Disease (%) at 2 ppm Botrci (Botrytis cinerea): 0%
Disease (%) at 0.125 ppm Alteso (Alternaria solani): 25%
Disease (%) at 0.032 ppm Septtr (Septoria tritici [3]): 5%
